Test results from patent EP0348490B1, “TREATMENT OF TYPE 2 DIABETES MELLITUS” (AMYLIN PHARMACEUTICALS, INC., priority 1988, dated 1995).
Where no end group is shown, it is not given here.

How the values were obtained:
[1] = tested on: soleus muscles strips; conditions: synthetic subpeptides; data not shown
[2] = tested on: isolated islets of Langerhans; assay: Glucose-stimulated insulin production by isolated islets of Langerhans; format: cell-based, rats
Procedure: The following experiments illustrate the fact that subpeptides of amylin can act to reduce the amount of insulin produced by isolated islets of Langerhans in response to a standard glucose challenge. […] All experiments were performed by known methods used in experimental practice. See, e.g., Lacey PE, and Kostianovsky M, Method for the isolation of intact islets of Langerhans from the rat pancreas. Diabetes 1967; 16:35-39.
Briefly, rats were killed, and islets of Langerhans were isolated from their pancreases. Experiments were performed either with freshly isolated islets or after overnight incubation of islets (23 h) in standard culture medium and conditions at 37°C. […]
Production of insulin is expressed as µU/islet/h. […] The integrity of the islet response was assessed by comparing the responses after stimulation of different aliquots of islets by two and ten mmol/L glucose, respectively, and the strength of the inhibitory response was judged against that induced by 1 µg/ml (650 nmol/L) somatostatin. […]
The results are shown in TABLE 5 below and all results are expressed as ± standard error of the mean (s.e.m.). The significance of differences between the means of groups is assessed by the t-test. […] In all other experimental conditions, the significance of the inhibitory effect is measured against the effect of 10 mmol/L glucose alone.

Row | Substance | activity in inhibiting glycogen synthesis (reducing incorporation of radioactive glucose into glycogen) [1] | inhibition of insulin secretion compared with that seen with amylin 27-37 ([2]; 10 mmol/L glucose, somatostatin 1 ug/mL (650 nmol/L), varying concentrations of CGRP 27-37) | trend of inhibition relative to that caused by amylin 27-37 ([2]; never reached significance)
1 | Amylin 8-37 (ATQRLANFLVHSSNNFGAILSSTNVGSNTY; Islet amyloid polypeptide; UniProt P10997 41-70, looked up, fragment) [[5]] | significant activity was present |  | 
2 | CGRP 27-37: subpeptide 27-37 of calcitonin gene related peptide, believed to affect the amylin receptor as an agonist (FVPTNVGSKAF; ends and bridges not checked; UniProt P06881 109-119, looked up, fragment) |  | no significant difference | slightly greater
